Measured values from ChEMBL document CHEMBL1135087, “Synthesis and biological evaluation of novel thio-substituted chromanes as high-affinity partial agonists for the estrogen receptor” (Bioorg Med Chem Lett, 2002).

What was measured:
[1] = target: T1, Estrogen receptor (Homo sapiens, UniProt Q92731+P03372)
[2] = test system: Ishikawa; experiment: cells; conditions: Homo sapiens
Description: Stimulation of alkaline phosphatase activity in Ishikawa human endometrial adenocarcinoma cells

[3] = target: T1, Estrogen receptor; experiment: Displacement of [3H]17-beta-estradiol from Estrogen receptor of rabbit uterine tissue; format: protein assay, Oryctolagus cuniculus; conditions: target entry is the homologue from another species

Structure (SMILES) | IC50 [1] [nM] | EC50 [2] [nM] | IC50 [3] [nM]
Oc1ccc2c(c1)OC[C@H](c1ccccc1)[C@@H]2c1ccc(OCCN2CCCCC2)cc1 (racemic) | 3.1 | 0.7 | 
Oc1ccc2c(c1)OC[C@H](c1ccccc1)[C@@H]2c1ccc(OCCN2CCCC2)cc1 (racemic) | 19 | 0.9 | 
Oc1ccc2c(c1)OC[C@H](c1ccccc1)[C@@H]2c1ccc(SCCN2CCCCC2)cc1 (racemic) | 9.7 | 1.8 | 
Cl.Oc1ccc2c(c1)OC[C@H](c1ccccc1)[C@@H]2c1ccc(SCCN2CCCC2)cc1 (racemic) | 6.5 | 0.5 | 
C#C[C@]1(O)CC[C@H]2C3CCc4cc(O)ccc4[C@H]3[C@@H](OC)C[C@@]21C (single isomer, unassigned) [MOXESTROL] |  | 0.08 | 2.9
CC/C(=C(\c1ccc(I)cc1)c1ccc(OCCN2CCCC2)cc1)c1ccccc1 [IDOXIFENE] | 7.5 | 7 | 
COc1ccc2c(c1)OC(C)(C)[C@@H](c1ccccc1)[C@@H]2c1ccc(OCCN2CCCC2)cc1 [LEVORMELOXIFENE] | 73 | 13 | 
O=C(c1ccc(OCCN2CCCCC2)cc1)c1c(-c2ccc(O)cc2)sc2cc(O)ccc12 [RALOXIFENE] |  | 0.04 | 
